Key:
Format in all cases: in vivo
[1] = test system: Dermatophagoides pteronyssinus; assay: Residual activity against Dermatophagoides pteronyssinus (treated filter paper, Biological Test Example 2); settings: 24 h, 0.8 g/m^2 on filter paper, mites put on seven days after treatment, mortality after one day
From the text: A piece of filter paper (diameter: 4 cm) was impregnated uniformly with an acetone solution of the compound sample so that the amount of the compound was 0.8 g/m^2 after being air-dried. After seven days, approximately twenty heads of mites (Dermatophagoides pteronyssinus) were put on the surface of the treated filter paper. An adhesive substance was applied on the circumference of the filter paper for preventing escape. After one day, the mortality was examined.

Tyrophagus putrescentiae [2] = assay: Activity against Tyrophagus putrescentiae (treated filter paper, Biological Test Example 1); settings: 24 h, 0.8 g/m^2 on filter paper, after one day
From the text: (§1) A piece of filter paper (diameter: 4 cm) was impregnated uniformly with an acetone solution of the present compound so that the amount of the impregnated compound was 0.8 g/m^2 after being air-dried. Approximately twenty heads of mites (Tyrophagus putrescentiae, Dermatophagoides farinae Hughes and Dermatophagoides pteronyssinuis) were put on the surface of the treated filter paper. An adhesive substance was applied on the circumference of the filter paper for preventing escape. After one day, the mortality was examined. The results for Tyrophagus putrescentiae, Dermatophagoides farinae Hughes and Dermatophagoides pteronyssinus are shown in Table 3, Table 4, and Table 5, respectively.

Tyrophagus putrescentiae [3] = assay: Fumigating activity against Tyrophagus putrescentiae (heated porous ceramic plate in peat grady chamber, Biological Test Example 3); settings: 24 h, 55 mg/m^3, ceramic plate heated at 175° C., after twenty-four hours
From the text: A piece of filter paper (diameter: 4 cm) was placed in an aluminum plate and an adhesive substance was applied on the circumference of the filter paper for preventing escape. Fifty to a hundred heads of mites (Tyrophagus putrescentiae) were put with little feed on the filter paper. Three sets of such filter paper with mites were placed on three corners (approximately 30 cm from the wall) in a floor of a peat grady chamber (1.8 m ×1.8 m ×1.8 m). A porous ceramic plate (4 cm ×4 cm ×1.2 cm) impregnated with an acetone solution of the present compound (concentration: 55 mg/m^3) was heated at 175° C. with an electric heater placed on the center of the floor of the chamber. After twenty-four hours, the mortality was examined.

[4] = test system: Dermatophagoides pteronyssinus; assay: Activity against Dermatophagoides pteronyssinus (treated filter paper, Biological Test Example 1); settings: 24 h, 0.8 g/m^2 on filter paper, after one day
From the text: as §1

[5] = test system: Dermatophagoides farinae Hughes; assay: Activity against Dermatophagoides farinae Hughes (treated filter paper, Biological Test Example 1); settings: 24 h, 0.8 g/m^2 on filter paper, after one day
From the text: as §1

SMILES | mortality at 0.8 g/m2 [1] [%] | mortality at 0.8 g/m2 (Tyrophagus putrescentiae [2]) [%] | mortality at 55 mg/m3 (Tyrophagus putrescentiae [3]) [%] | mortality at 0.8 g/m2 [4] [%] | mortality at 0.8 g/m2 [5] [%]
C#CC(=O)OCCCCCc1ccccc1 [Compound 1, 5-phenylpentyl propiolate] | 95 | 100 | 76 | 100 | 100
C#CC(=O)OCCCCCCc1ccccc1 [Compound 2, 6-phenylhexyl propiolate] | 100 | 100 | 73 | 100 | 100
C#CC(=O)OCCCCCCCc1ccccc1 [Compound 3, 7-phenylheptyl propiolate] | 100 | 100 | 96 | 100 | 100
C#CC(=O)OCCCCCCCCc1ccccc1 [Compound 4] | 100 | 100 |  | 100 | 100
C#CC(=O)OCCCCCCCCCc1ccccc1 [Compound 5] | 100 | 100 |  | 100 | 100
C#CC(=O)OCCCOc1ccccc1 [Compound 6] | 100 | 100 |  | 100 | 100
C#CC(=O)OCCCCOc1ccccc1 [Compound 7] | 100 | 100 |  | 100 | 100
C#CC(=O)OCCCCCOc1ccccc1 [Compound 8] | 100 | 100 |  | 100 | 100
C#CC(=O)OCCCOc1ccc(C)cc1C [Compound 9] | 100 | 100 |  | 100 | 100
C#CC(=O)OCCCCOc1ccccc1C [Compound 10, 4-(2-methylphenoxy)butyl propiolate] | 100 | 100 |  | 100 | 100
C#CC(=O)OCCCCOc1ccc(C)cc1 [Compound 11, 4-(4-methylphenoxy)butyl propiolate] | 100 | 100 | 79 | 100 | 100
C#CC(=O)OCCCCOc1ccc(C)cc1C [Compound 12] | 100 | 100 |  | 100 | 100
C#CC(=O)OCCCCOc1c(C)cccc1C [Compound 13] | 92 | 100 |  | 100 | 100
C#CC(=O)OCCCCCOc1c(C)cccc1C [Compound 14] | 100 | 100 |  | 100 | 100
C#CC(=O)OCCCCOc1c(C(C)C)cccc1C(C)C [Compound 15] | 95 | 100 |  | 100 | 100
C#CC(=O)OCCOCc1ccccc1 [Compound 16, 2-benzyloxyethyl propiolate] | 83 | 100 |  | 100 | 100
C#CC(=O)OCCCOCc1ccccc1 [Compound 17] | 100 | 100 |  | 100 | 100
C#CC(=O)OCCOCc1ccc(C)cc1 [Compound 18] | 100 | 100 |  | 100 | 100
C#CC(=O)OCCCCCCOc1ccccc1 [Compound 19] | 100 | 100 |  |  | 100
C#CC(=O)OCCCOc1ccc(CC)cc1 [Compound 20] | 100 | 100 |  |  | 100
C#CC(=O)OCCCCCOc1ccc(C)cc1 [Compound 21] | 100 | 100 |  |  | 100
C#CC(=O)OCCCCOc1ccc(CC)cc1 [Compound 22] | 100 | 96 |  |  | 100
C#CC(=O)OCC(C)COc1ccccc1 (centres unmarked) [Compound 23] | 100 | 100 |  |  | 100
C#CC(=O)OCC(C)COc1ccc(C)cc1 (centres unmarked) [Compound 24] | 100 | 100 |  |  | 100
C#CC(=O)OCCC(C)COc1ccccc1 (centres unmarked) [Compound 25] | 100 | 100 |  |  | 100
C#CC(=O)OCCC(C)COc1ccc(C)cc1 (centres unmarked) [Compound 26] | 94 | 100 |  |  | 96
C#CC(=O)OCCCOc1c(C)cccc1C [Compound 27] | 100 | 100 |  |  | 86
C#CC(=O)OCCOCc1ccc(CC)cc1 [Compound 28] | 97 | 100 |  |  | 100
C#CC(=O)OCC(C)OCc1ccccc1 (centres unmarked) [Compound 29] | 82 | 100 |  |  | 100
O=C(Oc1ccccc1)c1ccccc1O [Phenyl salicylate, reference compound] |  |  | 28 |  | 
